These results are taken from patent US7125869B2, “Polycyclic compounds which modulate PPARγ type receptors and cosmetic/pharmaceutical compositions comprised thereof” (Galderma Research & Development, priority 2002, dated 2006).

This assay has as its target T1, PPARγ (Homo sapiens, UniProt P37231).
T1 construct: Either way it is a handle, not a second protein
T1 sequence (P37231 238-505 limits assumed): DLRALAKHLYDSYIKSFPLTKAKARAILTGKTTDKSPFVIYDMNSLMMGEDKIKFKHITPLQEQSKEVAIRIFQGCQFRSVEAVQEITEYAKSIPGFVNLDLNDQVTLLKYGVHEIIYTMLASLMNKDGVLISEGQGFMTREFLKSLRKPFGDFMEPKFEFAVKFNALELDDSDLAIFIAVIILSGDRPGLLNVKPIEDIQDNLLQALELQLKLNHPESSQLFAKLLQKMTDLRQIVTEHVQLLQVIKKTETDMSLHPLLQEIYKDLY
Nature of the assay: Crossover-curve PPAR transactivation test (HeLN cells, luciferase reporter), PPARγ. The note with it: HeLN cells stably transfected with Gal-hPPARγ; Schild regression against reference agonist; n.a. means not active; read-out: PPARγ Kd app. The class given is cell-based. The protocol: The activation of receptors with an agonist (activator) in HeLN cells leads to the expression of a reporter gene, luciferase, which, in the presence of a substrate, generates light. The modulation of the receptors is measured by quantifying the luminescence produced after incubating the cells in the presence of a reference agonist. The ligands displace the agonist from its site. The measurement of the activity is performed by quantifying the light produced. This measurement makes it possible to determine the modulatory activity of the compounds according to the invention by determining the constant that is the affinity of the molecule for the receptor. Since this value can fluctuate depending on the basal activity and the expression of the receptor, it is referred to as Kd apparent (KdApp in nM).
To determine this constant, “crossover curves” of the test product against a reference agonist are performed in a 96-well plate: 10 concentrations of the test product plus a concentration 0 are arranged in a line, and 7 concentrations of the agonist plus a concentration 0 are arranged in a column. This is 88 measurement points for 1 product and 1 receptor. The remaining 8 wells are used for repeatability controls.
Measurements are also taken for total agonist controls with the same products.
The HeLN cell lines used are stable transfectants containing the plasmids ERE-βGlob-Luc-SV-Neo (reporter gene) and PPAR (α, δ, γ) Gal-hPPAR. These cells are inoculated into 96-well plates at a rate of 10 000 cells per well in 100 μl of DMEM medium without phenol red and supplemented with 10% of defatted calf serum. The plates are then incubated at 37° C. and 7% CO2 for 16 hours.
The various dilutions of the test products and of the reference ligand are added at a rate of 5 μl per well. The plates are then incubated for 18 hours at 37° C. and 7% CO2. The culture medium is removed by turning over and 100 μl of a 1:1 PBS/luciferine mixture are added to each well. After 5 minutes, the plates are read by the luminescence detector.
On the technique in general: A reporter such as luciferase makes a cellular process visible.

For the molecule `CCCCCCCC(=O)N(C)Cc1cccc(-c2ccc(N(C)c3ccccc3C(=O)O)cc2)c1` [Example 8, 2-(methyl-{3′-[(methyloctanoylamino)methyl]biphenyl-4-yl}amino)benzoic acid], the Kd worked out at 250 nM.

As for `COCCOCOc1ccc2cc(C(=O)N(C)Cc3cccc(-c4ccc(Nc5cccc(C(=O)N6CCC(C)CC6)c5)cc4)c3)ccc2c1` [Example 16, N-methyl-N-{4′-[3-(4-methylpiperidine-1-carbonyl)phenylamino]biphenyl-3-ylmethyl}-6-(2-methoxyethoxymethoxy)naphthalene-2-carboxylamide], the Kd worked out at 120 nM.

For the molecule `COCCOCOc1ccc2cc(C(=O)N(C)Cc3cccc(-c4ccc(Nc5cccc(C(=O)N6CCOCC6)c5)cc4)c3)ccc2c1` [Example 17], the Kd amounted to 500 nM.
